# Assay results from patent US20090035306A1 (KALYPSYS, INC., priority 2006, published 2009).
# Molecular target: T1, human TGR5 (Homo sapiens, UniProt Q8TDU6)
# T1 construct: expressed in transfected cells
# T1 sequence (Q8TDU6 1-330): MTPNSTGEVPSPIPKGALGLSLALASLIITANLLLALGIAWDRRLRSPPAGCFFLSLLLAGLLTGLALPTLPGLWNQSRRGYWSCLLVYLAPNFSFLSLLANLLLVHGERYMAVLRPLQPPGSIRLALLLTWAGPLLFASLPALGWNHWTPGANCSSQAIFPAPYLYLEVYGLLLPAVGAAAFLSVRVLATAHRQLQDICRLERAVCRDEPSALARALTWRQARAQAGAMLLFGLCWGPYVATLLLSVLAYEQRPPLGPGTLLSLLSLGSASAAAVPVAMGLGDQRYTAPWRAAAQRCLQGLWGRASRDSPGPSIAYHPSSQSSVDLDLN
# Assay: cAMP production assay in HEK293 cells stably expressing TGR5 (LANCE TR-FRET)
# Type: cell-based
# Settings: 30 minutes stimulation, read-out: cAMP Production in 293-TGR5 Cells EC50
# Method in brief: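 HEK293 cells stably transfected with human TGR5, incubated overnight in DMEM with 0.1% FBS, then given IBMX (1 mM final) and stimulated with compounds for 30 minutes. cAMP measured by LANCE TR-FRET after 1-7 h detection at room temperature. EC50 values reported as ≦10 μM (+) or >10 μM (−).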
row,SMILES,EC50 [µM]
1,"O=c1c2ccccc2nc(-c2ccc(F)cc2)n1NCc1cccnc1 [Example 37, 2-(4-fluorophenyl)-3-(pyridin-3-ylmethylamino)quinazolin-4(3H)-one]",> 10
2,"O=c1c2ccccc2nc(-c2cccc(Cl)c2)n1NCc1ccc(Br)cc1 [Example 46, 3-(4-bromobenzylamino)-2-(3-chlorophenyl)quinazolin-4(3H)-one]",≤ 10
3,"O=c1c2ccccc2nc(-c2ccccc2F)n1NCc1ccc(Br)cc1 [Example 5, 3-(4-bromobenzylamino)-2-(2-fluorophenyl)quinazolin-4(3H)-one]",≤ 10
4,"O=c1c2ccccc2nc(-c2ccccc2Cl)n1NCc1ccc(Br)cc1 [Example 10, 3-(4-bromobenzylamino)-2-(2-chlorophenyl)quinazolin-4(3H)-one]",≤ 10
5,"O=c1c2ccccc2nc(-c2cccs2)n1N(Cc1ccc(C(F)(F)F)cc1)Cc1ccc(C(F)(F)F)cc1 [Example 88, 3-(bis(4-(trifluoromethyl)benzyl)amino)-2-(thiophen-2-yl)quinazolin-4(3H)-one]",≤ 10
6,"O=c1c2cccc(O)c2nc(-c2ccc(F)cc2)n1NCc1ccc(Cl)cc1 [Example 114, 3-(4-chlorobenzylamino)-2-(4-fluorophenyl)-8-hydroxyquinazolin-4(3H)-one]",≤ 10
7,"COc1ccc(-c2nc3ccccc3c(=O)n2NCc2ccc(Br)cc2)cn1 [Example 116, 3-(4-bromobenzylamino)-2-(6-methoxypyridin-3-yl)quinazolin-4(3H)— one]",≤ 10
